PMC11951083, “Highly Specific Miniaturized Fluorescent Monoacylglycerol Lipase Probes Enable Translational Research” (Journal of the American Chemical Society, 2025)

Assays:
[1] = molecular target: FP (h) (Homo sapiens, UniProt P43088); assay: FP (h) (agonist radioligand); conditions: read-out: Inhibition FP (h) (agonist radioligand)
[2] = molecular target: mu (MOP) (h) (Homo sapiens, UniProt P35372); assay: mu (MOP) (h) (agonist radioligand); conditions: read-out: Inhibition mu (MOP) (h) (agonist radioligand)
Sequence of mu (MOP) (h) (P35372 whole entry): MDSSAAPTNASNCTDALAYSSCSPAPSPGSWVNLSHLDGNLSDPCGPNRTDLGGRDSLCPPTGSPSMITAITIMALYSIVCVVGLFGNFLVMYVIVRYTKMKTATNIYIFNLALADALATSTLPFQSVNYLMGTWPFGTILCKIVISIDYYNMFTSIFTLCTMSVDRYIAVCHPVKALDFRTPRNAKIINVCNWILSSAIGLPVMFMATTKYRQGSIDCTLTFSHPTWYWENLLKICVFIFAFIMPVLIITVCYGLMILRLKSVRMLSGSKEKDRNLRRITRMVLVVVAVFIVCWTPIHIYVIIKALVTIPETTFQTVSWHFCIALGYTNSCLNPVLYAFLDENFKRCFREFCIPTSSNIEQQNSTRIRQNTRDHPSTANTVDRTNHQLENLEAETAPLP

[3] = molecular target: T1, A3 (h) (Homo sapiens, UniProt P0DMS8); assay: A3 (h) (agonist radioligand); conditions: read-out: Inhibition A3 (h) (agonist radioligand)
T1 sequence (P0DMS8 1-318): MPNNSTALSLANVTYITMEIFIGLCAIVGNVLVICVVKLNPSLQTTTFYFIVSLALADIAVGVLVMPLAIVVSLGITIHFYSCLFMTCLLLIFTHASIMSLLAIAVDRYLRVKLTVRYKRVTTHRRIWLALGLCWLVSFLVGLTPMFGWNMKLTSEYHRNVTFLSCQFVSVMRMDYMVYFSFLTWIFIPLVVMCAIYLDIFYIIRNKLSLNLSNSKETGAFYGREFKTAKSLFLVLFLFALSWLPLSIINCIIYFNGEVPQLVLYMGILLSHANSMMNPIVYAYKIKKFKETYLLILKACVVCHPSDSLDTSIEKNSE

[4] = molecular target: 5-HT2B (h) (Homo sapiens, UniProt P41595); assay: 5-HT2B (h) (agonist radioligand); conditions: read-out: Inhibition 5-HT2B (h) (agonist radioligand)
Sequence of 5-HT2B (h) (P41595 whole entry): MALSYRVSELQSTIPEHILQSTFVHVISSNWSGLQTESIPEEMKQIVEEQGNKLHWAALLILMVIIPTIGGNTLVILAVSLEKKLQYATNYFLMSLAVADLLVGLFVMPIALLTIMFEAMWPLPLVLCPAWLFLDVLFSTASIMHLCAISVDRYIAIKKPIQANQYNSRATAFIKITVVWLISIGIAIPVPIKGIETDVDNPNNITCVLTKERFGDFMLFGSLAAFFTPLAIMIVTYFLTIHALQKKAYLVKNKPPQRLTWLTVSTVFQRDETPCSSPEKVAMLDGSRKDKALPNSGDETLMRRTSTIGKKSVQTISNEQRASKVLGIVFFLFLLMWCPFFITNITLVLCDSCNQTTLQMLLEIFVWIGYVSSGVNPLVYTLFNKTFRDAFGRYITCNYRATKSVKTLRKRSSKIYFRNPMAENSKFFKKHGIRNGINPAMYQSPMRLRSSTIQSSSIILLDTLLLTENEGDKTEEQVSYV

[5] = molecular target: MMP-9 (h) (Homo sapiens, UniProt P14780); assay: MMP-9 (h); conditions: read-out: Inhibition MMP-9 (h)
Sequence of MMP-9 (h) (P14780 94-707): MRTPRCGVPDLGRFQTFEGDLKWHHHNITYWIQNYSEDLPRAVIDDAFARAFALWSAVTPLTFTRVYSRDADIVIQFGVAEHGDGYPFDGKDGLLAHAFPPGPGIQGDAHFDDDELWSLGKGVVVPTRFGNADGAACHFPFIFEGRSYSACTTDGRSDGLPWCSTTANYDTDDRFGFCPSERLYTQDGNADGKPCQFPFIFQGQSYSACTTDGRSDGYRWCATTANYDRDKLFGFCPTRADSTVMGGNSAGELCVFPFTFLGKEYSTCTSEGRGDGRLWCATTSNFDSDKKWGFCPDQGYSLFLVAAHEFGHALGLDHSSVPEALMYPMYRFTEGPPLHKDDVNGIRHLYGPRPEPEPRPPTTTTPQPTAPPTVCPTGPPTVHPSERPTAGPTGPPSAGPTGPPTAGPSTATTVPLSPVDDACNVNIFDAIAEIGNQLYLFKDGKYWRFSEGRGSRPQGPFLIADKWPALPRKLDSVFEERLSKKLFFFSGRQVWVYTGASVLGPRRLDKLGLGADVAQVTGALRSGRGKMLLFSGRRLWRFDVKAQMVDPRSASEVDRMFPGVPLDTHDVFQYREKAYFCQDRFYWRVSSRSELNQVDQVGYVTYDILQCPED

[6] = molecular target: H2 (h) (Homo sapiens, UniProt P25021); assay: H2 (h) (antagonist radioligand); conditions: read-out: Inhibition H2 (h) (antagonist radioligand)
Sequence of H2 (h) (P25021 whole entry): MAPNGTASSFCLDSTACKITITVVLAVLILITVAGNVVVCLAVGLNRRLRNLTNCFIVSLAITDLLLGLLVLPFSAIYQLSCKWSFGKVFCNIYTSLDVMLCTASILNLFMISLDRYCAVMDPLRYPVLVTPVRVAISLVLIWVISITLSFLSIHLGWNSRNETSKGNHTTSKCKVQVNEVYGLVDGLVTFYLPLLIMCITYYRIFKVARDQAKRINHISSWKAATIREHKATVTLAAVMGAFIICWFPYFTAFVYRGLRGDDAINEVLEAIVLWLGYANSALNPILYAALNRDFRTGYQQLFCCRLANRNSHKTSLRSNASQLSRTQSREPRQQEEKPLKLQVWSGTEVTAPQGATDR

[7] = molecular target: PDE3B (h) (Homo sapiens, UniProt Q13370); assay: PDE3B (h); conditions: read-out: Inhibition PDE3B (h)
Sequence of PDE3B (h) (Q13370 whole entry): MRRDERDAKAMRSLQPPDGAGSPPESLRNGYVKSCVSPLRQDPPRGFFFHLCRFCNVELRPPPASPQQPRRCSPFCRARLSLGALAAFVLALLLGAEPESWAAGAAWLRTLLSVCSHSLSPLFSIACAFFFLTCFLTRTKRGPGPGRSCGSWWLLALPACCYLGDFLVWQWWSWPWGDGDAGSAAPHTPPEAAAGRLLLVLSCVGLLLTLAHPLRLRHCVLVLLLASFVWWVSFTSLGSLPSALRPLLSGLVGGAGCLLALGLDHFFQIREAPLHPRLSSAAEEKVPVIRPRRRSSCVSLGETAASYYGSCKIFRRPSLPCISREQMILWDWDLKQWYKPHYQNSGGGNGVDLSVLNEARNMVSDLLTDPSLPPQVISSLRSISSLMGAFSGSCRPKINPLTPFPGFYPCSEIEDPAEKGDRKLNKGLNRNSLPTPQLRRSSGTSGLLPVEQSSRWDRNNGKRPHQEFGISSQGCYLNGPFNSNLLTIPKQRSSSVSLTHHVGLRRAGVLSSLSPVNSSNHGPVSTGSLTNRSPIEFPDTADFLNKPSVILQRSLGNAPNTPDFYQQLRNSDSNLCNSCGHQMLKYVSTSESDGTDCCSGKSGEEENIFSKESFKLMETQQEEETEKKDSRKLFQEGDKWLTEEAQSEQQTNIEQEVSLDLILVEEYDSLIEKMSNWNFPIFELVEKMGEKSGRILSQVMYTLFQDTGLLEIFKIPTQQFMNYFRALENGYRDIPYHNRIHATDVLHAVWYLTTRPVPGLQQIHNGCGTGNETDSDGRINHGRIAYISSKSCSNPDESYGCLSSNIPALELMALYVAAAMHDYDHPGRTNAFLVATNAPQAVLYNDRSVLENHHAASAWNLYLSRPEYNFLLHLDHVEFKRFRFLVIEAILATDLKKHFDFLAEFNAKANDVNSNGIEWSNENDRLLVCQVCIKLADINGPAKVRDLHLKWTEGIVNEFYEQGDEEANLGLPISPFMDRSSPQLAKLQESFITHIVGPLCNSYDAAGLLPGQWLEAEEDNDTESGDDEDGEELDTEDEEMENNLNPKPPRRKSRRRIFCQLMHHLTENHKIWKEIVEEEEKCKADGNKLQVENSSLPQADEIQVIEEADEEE

[8] = molecular target: T2, MAO-A (h) monoamine oxydase A (Homo sapiens, UniProt P21397); assay: MAO-A (h) monoamine oxydase A, enzymatic assay; conditions: read-out: Inhibition MAO-A (h) monoamine oxydase A, enzymatic assay
T2 sequence (P21397 1-527): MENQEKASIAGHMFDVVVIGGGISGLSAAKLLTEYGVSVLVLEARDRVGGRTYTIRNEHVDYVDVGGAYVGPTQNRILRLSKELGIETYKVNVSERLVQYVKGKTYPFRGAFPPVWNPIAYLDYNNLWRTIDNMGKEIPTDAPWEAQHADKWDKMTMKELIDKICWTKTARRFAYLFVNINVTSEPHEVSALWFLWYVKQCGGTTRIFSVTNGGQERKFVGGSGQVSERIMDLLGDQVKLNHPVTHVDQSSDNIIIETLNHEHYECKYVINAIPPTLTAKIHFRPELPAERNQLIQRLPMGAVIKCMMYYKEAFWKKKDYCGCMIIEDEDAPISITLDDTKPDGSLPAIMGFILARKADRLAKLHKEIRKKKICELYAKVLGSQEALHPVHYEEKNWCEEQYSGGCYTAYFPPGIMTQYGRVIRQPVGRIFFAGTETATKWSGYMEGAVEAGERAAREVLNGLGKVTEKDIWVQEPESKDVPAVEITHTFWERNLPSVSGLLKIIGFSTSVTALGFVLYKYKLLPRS

[9] = molecular target: 5-HT2A (h) (Homo sapiens, UniProt P28223); assay: 5-HT2A (h) (agonist radioligand); conditions: read-out: Inhibition 5-HT2A (h) (agonist radioligand)
Sequence of 5-HT2A (h) (P28223 whole entry): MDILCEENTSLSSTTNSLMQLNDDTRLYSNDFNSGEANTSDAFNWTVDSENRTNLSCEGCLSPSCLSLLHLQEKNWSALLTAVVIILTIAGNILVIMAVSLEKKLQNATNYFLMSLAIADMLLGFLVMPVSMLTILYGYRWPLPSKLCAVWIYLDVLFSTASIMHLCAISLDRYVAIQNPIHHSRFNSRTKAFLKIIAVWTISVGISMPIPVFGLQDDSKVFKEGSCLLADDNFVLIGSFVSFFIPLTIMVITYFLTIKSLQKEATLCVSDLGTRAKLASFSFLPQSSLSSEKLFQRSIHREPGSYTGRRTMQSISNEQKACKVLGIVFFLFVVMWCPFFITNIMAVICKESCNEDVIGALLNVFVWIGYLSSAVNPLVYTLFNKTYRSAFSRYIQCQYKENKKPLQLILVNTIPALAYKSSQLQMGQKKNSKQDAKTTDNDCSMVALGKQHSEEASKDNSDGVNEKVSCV

[10] = molecular target: T3, AR(h) (Homo sapiens, UniProt P10275); assay: AR(h) (agonist radioligand); conditions: read-out: Inhibition AR(h) (agonist radioligand)
T3 sequence (P10275 1-920): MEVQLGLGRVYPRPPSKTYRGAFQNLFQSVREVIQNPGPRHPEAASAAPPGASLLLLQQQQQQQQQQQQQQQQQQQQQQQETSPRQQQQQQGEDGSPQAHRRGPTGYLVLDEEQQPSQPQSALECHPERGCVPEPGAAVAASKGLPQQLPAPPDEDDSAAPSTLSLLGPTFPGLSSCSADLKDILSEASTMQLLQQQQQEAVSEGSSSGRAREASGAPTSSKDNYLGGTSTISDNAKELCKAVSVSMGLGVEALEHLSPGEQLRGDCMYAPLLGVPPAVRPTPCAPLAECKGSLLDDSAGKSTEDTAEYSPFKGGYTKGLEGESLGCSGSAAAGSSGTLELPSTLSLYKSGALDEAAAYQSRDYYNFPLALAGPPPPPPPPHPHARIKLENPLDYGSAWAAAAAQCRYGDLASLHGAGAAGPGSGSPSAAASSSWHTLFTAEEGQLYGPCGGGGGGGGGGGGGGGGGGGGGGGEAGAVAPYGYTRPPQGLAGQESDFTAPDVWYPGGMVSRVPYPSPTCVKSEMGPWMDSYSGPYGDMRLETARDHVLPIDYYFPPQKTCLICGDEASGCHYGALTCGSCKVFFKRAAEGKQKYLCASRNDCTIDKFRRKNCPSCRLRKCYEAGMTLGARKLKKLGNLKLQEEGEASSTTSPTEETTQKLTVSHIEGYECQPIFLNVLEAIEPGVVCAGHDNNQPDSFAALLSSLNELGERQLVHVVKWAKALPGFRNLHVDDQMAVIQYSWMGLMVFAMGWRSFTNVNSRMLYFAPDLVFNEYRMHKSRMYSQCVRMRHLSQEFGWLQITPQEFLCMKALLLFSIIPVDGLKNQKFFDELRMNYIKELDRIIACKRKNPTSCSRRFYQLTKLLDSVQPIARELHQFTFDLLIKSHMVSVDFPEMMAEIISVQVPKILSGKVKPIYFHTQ

[11] = molecular target: beta1 (h) (Homo sapiens, UniProt P08588); assay: beta1 (h) (agonist radioligand); conditions: read-out: Inhibition beta1 (h) (agonist radioligand)
Sequence of beta1 (h) (P08588 whole entry): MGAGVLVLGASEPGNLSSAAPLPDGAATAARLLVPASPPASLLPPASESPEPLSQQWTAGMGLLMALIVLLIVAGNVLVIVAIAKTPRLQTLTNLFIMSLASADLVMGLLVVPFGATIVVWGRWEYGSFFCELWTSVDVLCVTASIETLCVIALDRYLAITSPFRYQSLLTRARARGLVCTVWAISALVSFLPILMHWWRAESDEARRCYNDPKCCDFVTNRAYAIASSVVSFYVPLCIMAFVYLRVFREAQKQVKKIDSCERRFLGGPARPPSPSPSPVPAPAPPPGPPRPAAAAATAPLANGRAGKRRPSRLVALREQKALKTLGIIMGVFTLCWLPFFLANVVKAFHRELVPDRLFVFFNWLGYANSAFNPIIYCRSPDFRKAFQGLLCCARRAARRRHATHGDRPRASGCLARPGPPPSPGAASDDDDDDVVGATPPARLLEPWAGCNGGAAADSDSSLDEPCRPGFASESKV

Sequence of FP (h) (P43088 whole entry): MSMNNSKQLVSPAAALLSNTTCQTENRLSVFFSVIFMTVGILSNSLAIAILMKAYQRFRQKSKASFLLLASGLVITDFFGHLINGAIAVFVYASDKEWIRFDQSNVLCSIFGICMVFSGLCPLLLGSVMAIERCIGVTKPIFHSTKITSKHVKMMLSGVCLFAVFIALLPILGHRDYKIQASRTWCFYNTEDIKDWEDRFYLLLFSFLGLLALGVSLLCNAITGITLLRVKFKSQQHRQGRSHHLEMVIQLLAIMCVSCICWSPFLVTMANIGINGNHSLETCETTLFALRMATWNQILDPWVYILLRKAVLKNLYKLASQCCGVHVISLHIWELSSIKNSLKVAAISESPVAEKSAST

Q: With O=C(OC(C(F)(F)F)C(F)(F)F)N1CC2(CC(CC3=C4C=CC(c5ccc[nH]5)=[N+]4[B-](F)(F)n4cccc43)C2)C1 [Compound 2a] as the molecule, how does the inhibition at 10 µM [1] read?
A: 4.4%

Q: What about the inhibition at 10 µM [2] of the same molecule?
A: 7.6%

Q: And the inhibition at 10 µM [3]?
A: 34.8%

Q: And the inhibition at 10 µM [4]?
A: 20.8%

Q: And the inhibition at 10 µM [5]?
A: 9.7%

Q: What about the inhibition at 10 µM [6] of the same molecule?
A: -48.6%

Q: And the inhibition at 10 µM [7]?
A: 12.6%

Q: What about the inhibition at 10 µM [8] of the same molecule?
A: -3%

Q: What about the inhibition at 10 µM [9] of the same molecule?
A: -6.8%

Q: And the inhibition at 10 µM [10]?
A: 6%

Q: And the inhibition at 10 µM [11]?
A: -3.3%

Q: With O=C1CO[C@H]2CCN(C(=O)N3CC4(CC(CC5=C6C=CC(c7ccc[nH]7)=[N+]6[B-](F)(F)n6cccc65)C4)C3)C[C@H]2N1 [Compound 4a] as the molecule, how does the inhibition at 10 µM [1] read?
A: 16.3%

Q: What about the inhibition at 10 µM [2] of the same molecule?
A: 11%

Q: And the inhibition at 10 µM [4]?
A: 30.3%

Q: What about the inhibition at 10 µM [5] of the same molecule?
A: 47%

Q: And the inhibition at 10 µM [6]?
A: -34.8%

Q: And the inhibition at 10 µM [7]?
A: 13%

Q: What about the inhibition at 10 µM [8] of the same molecule?
A: 4.3%

Q: What about the inhibition at 10 µM [9] of the same molecule?
A: 18.5%

Q: And the inhibition at 10 µM [10]?
A: -1.4%

Q: What about the inhibition at 10 µM [11] of the same molecule?
A: -1.2%

Q: Which inhibition at 10 µM [1] does the source give for O=C(O[C@H](CO)C(F)(F)F)N1CC2(CC(CC3=C4C=CC=[N+]4[B-](F)(F)n4cccc43)C2)C1 [Compound 1] here?
A: 11.6%

Q: What about the inhibition at 10 µM [2] of the same molecule?
A: 4%

Q: And the inhibition at 10 µM [3]?
A: -1.6%

Q: And the inhibition at 10 µM [4]?
A: 28.3%

Q: And the inhibition at 10 µM [6]?
A: -10.7%

Q: And the inhibition at 10 µM [7]?
A: 15.9%

Q: And the inhibition at 10 µM [8]?
A: 22.6%

Q: And the inhibition at 10 µM [9]?
A: -13.2%

Q: And the inhibition at 10 µM [10]?
A: -14.2%

Q: And the inhibition at 10 µM [11]?
A: -3.3%

Q: With O=C(OC(C(F)(F)F)C(F)(F)F)N1CC2(CC(CC3=C4C=CC=[N+]4[B-](F)(F)n4cccc43)C2)C1 [Compound 2] as the molecule, how does the inhibition at 10 µM [1] read?
A: 6.5%

Q: And the inhibition at 10 µM [2]?
A: -0.4%

Q: What about the inhibition at 10 µM [3] of the same molecule?
A: 45%

Q: And the inhibition at 10 µM [4]?
A: 4.1%

Q: What about the inhibition at 10 µM [5] of the same molecule?
A: 4.5%

Q: And the inhibition at 10 µM [6]?
A: -18.7%

Q: What about the inhibition at 10 µM [7] of the same molecule?
A: 6.3%

Q: And the inhibition at 10 µM [8]?
A: -1.3%

Q: What about the inhibition at 10 µM [9] of the same molecule?
A: -36.2%

Q: What about the inhibition at 10 µM [10] of the same molecule?
A: 4.2%

Q: What about the inhibition at 10 µM [11] of the same molecule?
A: -1.7%

Q: How did the inhibition at 10 µM [1] turn out when O=C(N1CC2(CC(CC3=C4C=CC=[N+]4[B-](F)(F)n4cccc43)C2)C1)N1CC2(CC(n3cnc(C4CC4)n3)C2)C1 [Compound 5] was run?
A: 10.4%

Q: What about the inhibition at 10 µM [2] of the same molecule?
A: 8.5%

Q: What about the inhibition at 10 µM [3] of the same molecule?
A: 17.7%

Q: What about the inhibition at 10 µM [4] of the same molecule?
A: 0.1%

Q: What about the inhibition at 10 µM [5] of the same molecule?
A: 16.8%

Q: And the inhibition at 10 µM [6]?
A: -1.9%

Q: What about the inhibition at 10 µM [7] of the same molecule?
A: 10.7%

Q: And the inhibition at 10 µM [8]?
A: 4.4%

Q: And the inhibition at 10 µM [9]?
A: -9.2%

Q: What about the inhibition at 10 µM [10] of the same molecule?
A: -19.8%

Q: What about the inhibition at 10 µM [11] of the same molecule?
A: 0.6%
